Measurements: PubChem BioAssay (NCI)
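Dose response: 5 concentrations. Exposure: 48 h. Format: 96-well plates. Endpoint: linear interpolation; highest concentration if not reached. TGI: concentration producing complete growth inhibition.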

What was measured:
Assay in all cases: inhibition of tumour cell growth, NCI panel, 48 h
SNB-78 CNS = tested on: SNB-78 CNS
SK-OV-3 ovarian = tested on: SK-OV-3 ovarian
RPMI-8226 leukemia = tested on: RPMI-8226 leukemia
COLO 205 colon = tested on: COLO 205 colon
SK-MEL-2 melanoma = tested on: SK-MEL-2 melanoma
HOP-92 NSCLC = tested on: HOP-92 NSCLC
A498 renal = tested on: A498 renal
HCC-2998 colon = tested on: HCC-2998 colon
CCRF-CEM leukemia = tested on: CCRF-CEM leukemia
A549 NSCLC = tested on: A549 NSCLC
MOLT-4 leukemia = tested on: MOLT-4 leukemia
UO-31 renal = tested on: UO-31 renal
KM20L2 colon = tested on: KM20L2 colon
OVCAR-5 ovarian = tested on: OVCAR-5 ovarian
SNB-19 CNS = tested on: SNB-19 CNS
LXFL 529 NSCLC = tested on: LXFL 529 NSCLC
786-0 renal = tested on: 786-0 renal
SK-MEL-28 melanoma = tested on: SK-MEL-28 melanoma
CAKI-1 renal = tested on: CAKI-1 renal
M19-MEL melanoma = tested on: M19-MEL melanoma
HOP-62 NSCLC = tested on: HOP-62 NSCLC
TK-10 renal = tested on: TK-10 renal
HOP-18 NSCLC = tested on: HOP-18 NSCLC
EKVX NSCLC = tested on: EKVX NSCLC
KM12 colon = tested on: KM12 colon
RXF-631 renal = tested on: RXF-631 renal
DLD-1 colon = tested on: DLD-1 colon
SF-268 CNS = tested on: SF-268 CNS
DMS 114 small cell lung = tested on: DMS 114 small cell lung
OVCAR-4 ovarian = tested on: OVCAR-4 ovarian
SW-620 colon = tested on: SW-620 colon
NCI-H226 lung = tested on: NCI-H226 lung
UACC-62 melanoma = tested on: UACC-62 melanoma
OVCAR-3 ovarian = tested on: OVCAR-3 ovarian
NCI-H522 lung = tested on: NCI-H522 lung
M14 melanoma = tested on: M14 melanoma
U251 CNS = tested on: U251 CNS
SF-295 CNS = tested on: SF-295 CNS
DMS 273 small cell lung = tested on: DMS 273 small cell lung
LOX IMVI melanoma = tested on: LOX IMVI melanoma
SK-MEL-5 melanoma = tested on: SK-MEL-5 melanoma
HCT-15 colon = tested on: HCT-15 colon
ACHN renal = tested on: ACHN renal
K-562 leukemia = tested on: K-562 leukemia
UACC-257 melanoma = tested on: UACC-257 melanoma
IGROV1 ovarian = tested on: IGROV1 ovarian
NCI-H460 lung = tested on: NCI-H460 lung
SF-539 CNS = tested on: SF-539 CNS
HT29 colon = tested on: HT29 colon
MALME-3M melanoma = tested on: MALME-3M melanoma
HL-60(TB) leukemia = tested on: HL-60(TB) leukemia
HCT-116 colon = tested on: HCT-116 colon
XF 498 CNS = tested on: XF 498 CNS
NCI-H23 lung = tested on: NCI-H23 lung
SN12C renal = tested on: SN12C renal
OVCAR-8 ovarian = tested on: OVCAR-8 ovarian
SR leukemia = tested on: SR leukemia
SNB-75 CNS = tested on: SNB-75 CNS
RXF 393 renal = tested on: RXF 393 renal

COc1cc2nncc(Sc3cnnc4ccccc34)c2cc1OC
TGI (SNB-78 CNS): 92.4 µM
TGI (SK-OV-3 ovarian): 76.6 µM
TGI (RPMI-8226 leukemia): 77.7 µM
TGI (COLO 205 colon): > 100 µM
TGI (SK-MEL-2 melanoma): 36.2 µM
TGI (HOP-92 NSCLC): > 100 µM
TGI (A498 renal): 82 µM
TGI (HCC-2998 colon): 32.9 µM
TGI (CCRF-CEM leukemia): 73.9 µM
TGI (A549 NSCLC): 71.9 µM
TGI (MOLT-4 leukemia): 54.5 µM
TGI (UO-31 renal): 47.9 µM
TGI (KM20L2 colon): 68.3 µM
TGI (OVCAR-5 ovarian): 64.6 µM
TGI (SNB-19 CNS): 42.3 µM
TGI (LXFL 529 NSCLC): > 100 µM
TGI (786-0 renal): 96.9 µM
TGI (SK-MEL-28 melanoma): 60.9 µM
TGI (CAKI-1 renal): > 100 µM
TGI (M19-MEL melanoma): > 100 µM
TGI (HOP-62 NSCLC): > 100 µM
TGI (TK-10 renal): 81.3 µM
TGI (HOP-18 NSCLC): 37.8 µM
TGI (EKVX NSCLC): > 100 µM
TGI (KM12 colon): 56.5 µM
TGI (RXF-631 renal): 53.6 µM
TGI (DLD-1 colon): 49.6 µM
TGI (SF-268 CNS): > 100 µM
TGI (DMS 114 small cell lung): > 100 µM
TGI (OVCAR-4 ovarian): > 100 µM
TGI (SW-620 colon): 41.3 µM
TGI (NCI-H226 lung): 67.3 µM
TGI (UACC-62 melanoma): > 100 µM
TGI (OVCAR-3 ovarian): 33.3 µM
TGI (NCI-H522 lung): 29.8 µM
TGI (M14 melanoma): > 100 µM
TGI (U251 CNS): 67.5 µM
TGI (SF-295 CNS): 91.6 µM
TGI (DMS 273 small cell lung): 81.7 µM
TGI (LOX IMVI melanoma): 63.8 µM
TGI (SK-MEL-5 melanoma): 29.5 µM
TGI (HCT-15 colon): 72.2 µM
TGI (ACHN renal): 51.9 µM
TGI (K-562 leukemia): > 100 µM
TGI (UACC-257 melanoma): 68 µM
TGI (IGROV1 ovarian): > 100 µM
TGI (NCI-H460 lung): 50.4 µM
TGI (SF-539 CNS): 51.7 µM
TGI (HT29 colon): 59.1 µM
TGI (MALME-3M melanoma): 32.4 µM
TGI (HL-60(TB) leukemia): 70.5 µM

Cc1cc([N+](=O)[O-])c(C)c2c1[nH]c1ccc(/C(CCC3CCCC3)=N\N)cc12
TGI (SNB-78 CNS): > 100 µM
TGI (RPMI-8226 leukemia): 62.2 µM
TGI (COLO 205 colon): 33.1 µM
TGI (HCT-116 colon): 21.7 µM
TGI (SK-MEL-2 melanoma): 30.2 µM
TGI (HCC-2998 colon): 30.9 µM
TGI (CCRF-CEM leukemia): 44.9 µM
TGI (A549 NSCLC): 34.2 µM
TGI (MOLT-4 leukemia): 39 µM
TGI (UO-31 renal): 30 µM
TGI (XF 498 CNS): 28.1 µM
TGI (SNB-19 CNS): 35.7 µM
TGI (786-0 renal): 28 µM
TGI (SK-MEL-28 melanoma): 34 µM
TGI (M19-MEL melanoma): 37.2 µM
TGI (NCI-H23 lung): 32.7 µM
TGI (HOP-62 NSCLC): 36.7 µM
TGI (TK-10 renal): 27.3 µM
TGI (HOP-18 NSCLC): 23.8 µM
TGI (EKVX NSCLC): 32 µM
TGI (KM12 colon): 34.9 µM
TGI (SF-268 CNS): 37.5 µM
TGI (DMS 114 small cell lung): 35.2 µM
TGI (SN12C renal): 29.7 µM
TGI (OVCAR-4 ovarian): 53.9 µM
TGI (SW-620 colon): 33.5 µM
TGI (OVCAR-8 ovarian): 75 µM
TGI (NCI-H226 lung): 41.5 µM
TGI (OVCAR-3 ovarian): 36.9 µM
TGI (NCI-H522 lung): 35 µM
TGI (M14 melanoma): 39.5 µM
TGI (SF-295 CNS): 38.1 µM
TGI (DMS 273 small cell lung): 36.3 µM
TGI (LOX IMVI melanoma): 29.6 µM
TGI (SK-MEL-5 melanoma): 37.7 µM
TGI (HCT-15 colon): 29.2 µM
TGI (ACHN renal): 28.8 µM
TGI (K-562 leukemia): 55.2 µM
TGI (UACC-257 melanoma): 42.7 µM
TGI (NCI-H460 lung): > 100 µM
TGI (SF-539 CNS): 34.8 µM
TGI (HT29 colon): > 100 µM
TGI (SR leukemia): 55.9 µM
TGI (MALME-3M melanoma): 32 µM
TGI (SNB-75 CNS): 46.7 µM

Cc1c(C)c2cc3c(=O)ccoc3c(C)c2oc1=O
TGI (SNB-78 CNS): > 100 µM
TGI (SK-OV-3 ovarian): > 100 µM
TGI (RPMI-8226 leukemia): > 100 µM
TGI (COLO 205 colon): > 100 µM
TGI (SK-MEL-2 melanoma): > 100 µM
TGI (A498 renal): > 100 µM
TGI (HCC-2998 colon): > 100 µM
TGI (CCRF-CEM leukemia): > 100 µM
TGI (A549 NSCLC): > 100 µM
TGI (MOLT-4 leukemia): 92.7 µM
TGI (UO-31 renal): > 100 µM
TGI (KM20L2 colon): > 100 µM
TGI (OVCAR-5 ovarian): > 100 µM
TGI (SNB-19 CNS): > 100 µM
TGI (LXFL 529 NSCLC): > 100 µM
TGI (786-0 renal): > 100 µM
TGI (SK-MEL-28 melanoma): > 100 µM
TGI (M19-MEL melanoma): > 100 µM
TGI (NCI-H23 lung): > 100 µM
TGI (HOP-62 NSCLC): > 100 µM
TGI (TK-10 renal): > 100 µM
TGI (HOP-18 NSCLC): > 100 µM
TGI (EKVX NSCLC): > 100 µM
TGI (RXF 393 renal): > 100 µM
TGI (KM12 colon): > 100 µM
TGI (RXF-631 renal): > 100 µM
TGI (SF-268 CNS): > 100 µM
TGI (DMS 114 small cell lung): > 100 µM
TGI (SN12C renal): > 100 µM
TGI (SW-620 colon): > 100 µM
TGI (OVCAR-8 ovarian): > 100 µM
TGI (NCI-H226 lung): > 100 µM
TGI (UACC-62 melanoma): > 100 µM
TGI (OVCAR-3 ovarian): > 100 µM
TGI (NCI-H522 lung): > 100 µM
TGI (M14 melanoma): > 100 µM
TGI (U251 CNS): > 100 µM
TGI (SF-295 CNS): > 100 µM
TGI (LOX IMVI melanoma): > 100 µM
TGI (SK-MEL-5 melanoma): > 100 µM
TGI (HCT-15 colon): > 100 µM
TGI (ACHN renal): > 100 µM
TGI (K-562 leukemia): > 100 µM
TGI (UACC-257 melanoma): > 100 µM
TGI (IGROV1 ovarian): > 100 µM
TGI (NCI-H460 lung): > 100 µM
TGI (SF-539 CNS): > 100 µM
TGI (MALME-3M melanoma): > 100 µM
TGI (SNB-75 CNS): 85.2 µM
TGI (HL-60(TB) leukemia): > 100 µM

N=C(N)SCc1cn2ccccc2n1
TGI (SNB-78 CNS): > 100 µM
TGI (RPMI-8226 leukemia): > 100 µM
TGI (COLO 205 colon): > 100 µM
TGI (HCT-116 colon): > 100 µM
TGI (SK-MEL-2 melanoma): > 100 µM
TGI (HCC-2998 colon): > 100 µM
TGI (CCRF-CEM leukemia): > 100 µM
TGI (A549 NSCLC): > 100 µM
TGI (MOLT-4 leukemia): > 100 µM
TGI (UO-31 renal): > 100 µM
TGI (XF 498 CNS): > 100 µM
TGI (OVCAR-5 ovarian): > 100 µM
TGI (SNB-19 CNS): > 100 µM
TGI (786-0 renal): > 100 µM
TGI (SK-MEL-28 melanoma): > 100 µM
TGI (CAKI-1 renal): > 100 µM
TGI (M19-MEL melanoma): > 100 µM
TGI (NCI-H23 lung): > 100 µM
TGI (HOP-62 NSCLC): > 100 µM
TGI (TK-10 renal): > 100 µM
TGI (HOP-18 NSCLC): > 100 µM
TGI (EKVX NSCLC): > 100 µM
TGI (KM12 colon): > 100 µM
TGI (DLD-1 colon): > 100 µM
TGI (SF-268 CNS): > 100 µM
TGI (DMS 114 small cell lung): > 100 µM
TGI (SN12C renal): > 100 µM
TGI (OVCAR-4 ovarian): > 100 µM
TGI (SW-620 colon): > 100 µM
TGI (OVCAR-8 ovarian): > 100 µM
TGI (NCI-H226 lung): > 100 µM
TGI (OVCAR-3 ovarian): > 100 µM
TGI (NCI-H522 lung): > 100 µM
TGI (M14 melanoma): > 100 µM
TGI (U251 CNS): > 100 µM
TGI (SF-295 CNS): > 100 µM
TGI (DMS 273 small cell lung): > 100 µM
TGI (LOX IMVI melanoma): > 100 µM
TGI (SK-MEL-5 melanoma): > 100 µM
TGI (HCT-15 colon): > 100 µM
TGI (ACHN renal): > 100 µM
TGI (K-562 leukemia): > 100 µM
TGI (UACC-257 melanoma): > 100 µM
TGI (NCI-H460 lung): > 100 µM
TGI (SF-539 CNS): > 100 µM
TGI (HT29 colon): > 100 µM
TGI (SR leukemia): > 100 µM
TGI (MALME-3M melanoma): > 100 µM
TGI (SNB-75 CNS): > 100 µM
TGI (HL-60(TB) leukemia): > 100 µM
